We go through four compounds from BindingDB's records for doi:10.7270/Q21Z42V4 (Burnham Center For Chemical Genomics, 2010).

Chain of Intestinal-type alkaline phosphatase (P24822 whole entry, looked up): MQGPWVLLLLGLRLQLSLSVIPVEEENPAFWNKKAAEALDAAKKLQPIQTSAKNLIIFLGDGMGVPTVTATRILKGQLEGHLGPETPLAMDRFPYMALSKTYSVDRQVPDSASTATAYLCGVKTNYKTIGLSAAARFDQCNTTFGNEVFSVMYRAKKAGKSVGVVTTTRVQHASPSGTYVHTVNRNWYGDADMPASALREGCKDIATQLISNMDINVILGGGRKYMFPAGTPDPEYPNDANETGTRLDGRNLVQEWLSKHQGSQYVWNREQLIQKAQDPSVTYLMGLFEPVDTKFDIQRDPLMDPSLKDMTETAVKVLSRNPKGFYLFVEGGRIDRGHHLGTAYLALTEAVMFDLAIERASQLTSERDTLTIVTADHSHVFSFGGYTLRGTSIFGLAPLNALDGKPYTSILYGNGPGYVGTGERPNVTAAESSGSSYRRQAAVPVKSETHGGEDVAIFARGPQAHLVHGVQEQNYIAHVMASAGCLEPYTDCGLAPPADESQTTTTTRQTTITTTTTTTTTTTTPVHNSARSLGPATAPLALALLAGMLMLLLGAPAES

The assay has as its target Intestinal-type alkaline phosphatase (Mus musculus, UniProt P24822). Briefly: PubChem AID 488875.
For orientation: EC50 means the concentration giving half of the maximal effect. Read a high EC50 as a need for much substance. With `C=c1[nH]n(-c2nc3ccccc3[nH]2)c(=O)c1=CN(C)C` [(4E)-2-(1H-benzimidazol-2-yl)-4-(dimethylaminomethylidene)-5-methyl-pyrazol-3-one], the EC50 is above 100 µM.
As for `CCc1ccc(CN=Nc2ncnc3nc[nH]c23)cc1` [MLS000419199], the EC50 is above 100 µM.
Take `Cn1c(C(C#N)C(=O)c2ccc(Br)s2)nc2ccccc21` (centres undefined) [MLS001167394]: the EC50 was above 100 µM.
In turn, `COc1cccc(C=NNC(=O)c2[nH][nH]c(=O)c2C)c1O` [N'-[(E)-(5-methoxy-6-oxidanylidene-cyclohexa-2,4-dien-1-ylidene)methyl]-4-methyl-5-oxidanylidene-1,4-dihydropyrazole-3-carbohydrazide] registered an EC50 above 100 µM.
